In patent US9302999B2, “Substituted triazoles as herbicides” (E. I. DU PONT DE NEMOURS AND COMPANY, priority 2012, dated 2016):

Columns and labels:
[1] = tested on: crabgrass, Brazil (Brazilian crabgrass, Digitaria horizontalis); assay: Test F pre-/postemergence: crabgrass, Brazil; assay type: in vivo; details: Postemergence, scale 0 to 100
How it was run: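 Visual response scores, 0 meaning no effect and 100 complete control, were assigned against untreated controls 14 to 21 days after treatment. Test chemicals in a surfactant-containing non-phytotoxic solvent were applied preemergence to seeded silt loam soil or postemergence to 2–18 cm plants in peat-based medium.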

[2] = tested on: waterhemp_RES2 (ALS/HPPD resistant common waterhemp, Amaranthus rudis); assay: Test F postemergence: waterhemp_RES2; assay type: in vivo; details: scale 0 to 100
Source text: Seeds of plant species selected from corn (Zea mays), soybean (Glycine max), velvetleaf (Abutilon theophrasti), lambsquarters (Chenopodium album), poinsettia, wild (wild poinsettia, Euphorbia heterophylla), pigweed, palmer (palmer pigweed, Amaranthus palmeri), waterhemp (common waterhemp, Amaranthus rudis), surinam grass (Brachiaria decumbens), crabgrass, Brazil (Brazilian crabgrass, Digitaria horizontalis), panicum, fall (fall panicum Panicum dichotomiflorum), crabgrass, large (large crabgrass, Digitaria sanguinalis), foxtail, giant (giant foxtail, Setaria faberii), foxtail, green (green foxtail Setaria viridis), goosegrass (Eleusine indica), ragweed (common ragweed, Ambrosia elatior), barnyardgrass (Echinochloa crus-galli), sandbur (southern sandbur, Cenchrus echinatus), arrowleaf sida (Sida rhombifolia), ryegrass, Italian (Italian ryegrass, Lolium multiflorum), dayflower, VA (Virginia (VA) dayflower, Commelina virginica), field bindweed (Convolvulus arvensis), cocklebur (common cocklebur, Xanthium strumarium), morningglory (Ipomoea coccinea), nightshade (eastern black nightshade, Solanum ptycanthum), kochia (Kochia scoparia), nutsedge, yellow (yellow nutsedge, Cyperus esculentus), johnsongrass (Sorghum halepense), smartweed (ladysthumb smartweed, Polygonum persicaria), and beggarticks (hairy beggarticks, Bidens pilosa), were planted into a silt loam soil and treated preemergence with test chemicals formulated in a non-phytotoxic solvent mixture which included a surfactant. At the same time, plants selected from these crop and weed species and also pigweed (Amaranthus retroflexus), waterhemp_RES1 (ALS/Triazine resistant common waterhemp, Amaranthus rudis) and waterhemp_RES2 (ALS/HPPD resistant common waterhemp, Amaranthus rudis) were planted in pots containing a planting medium comprising spaghnum peat moss, vermiculite, wetting agent and starter nutrients treated with postemergence applications of some of the test chemicals formulated in the same manner. Plants ranged in height from 2 to 18 cm for postemergence treatments (1- to 4-leaf stage).
Treated plants and controls were maintained in a greenhouse for 14 to 21 days, after which time all species were compared to controls and visually evaluated. Plant response ratings, summarized in Table E, are based on a scale of 0 to 100 where 0 is no effect and 100 is complete control. A dash (-) response means no test result.

Q: `CCOc1nn(-c2ccc(F)cc2)nc1Cc1ccnc(C(F)(F)F)c1` [Compound 196, 4-[[5-ethoxy-2-(4-fluorophenyl)-2H-1,2,3-triazol-4-yl]methyl]-2-(trifluoromethyl)pyridine] was tested. Which “Plant response rating, Crabgrass, Brazil” value ([1]; 8 g ai/ha) did it give?
A: 60

Q: And the “Plant response rating, Crabgrass, Brazil” value ([1]; 16 g ai/ha)?
A: 75

Q: And the “Plant response rating, Crabgrass, Brazil” value ([1]; 31 g ai/ha)?
A: 85

Q: What about the “Plant response rating, Crabgrass, Brazil” value ([1]; 62 g ai/ha) of the same compound?
A: 95

Q: And the “Plant response rating, Crabgrass, Brazil” value ([1]; 125 g ai/ha)?
A: 95

Q: And the “Plant response rating, Waterhemp, Res2” value ([2]; 8 g ai/ha)?
A: 90

Q: What about the “Plant response rating, Waterhemp, Res2” value ([2]; 16 g ai/ha) of the same compound?
A: 90

Q: And the “Plant response rating, Waterhemp, Res2” value ([2]; 31 g ai/ha)?
A: 95

Q: What about the “Plant response rating, Waterhemp, Res2” value ([2]; 62 g ai/ha) of the same compound?
A: 95

Q: What about the “Plant response rating, Waterhemp, Res2” value ([2]; 125 g ai/ha) of the same compound?
A: 95
